The values that follow come from patent US9597315B2, “1-heteroaryl-3-azabicyclo[3.1.0]hexanes, methods for their preparation and their use as medicaments” (EUTHYMICS BIOSCIENCE, INC., priority 2007, dated 2017).

T3 sequence (Q01959 whole entry): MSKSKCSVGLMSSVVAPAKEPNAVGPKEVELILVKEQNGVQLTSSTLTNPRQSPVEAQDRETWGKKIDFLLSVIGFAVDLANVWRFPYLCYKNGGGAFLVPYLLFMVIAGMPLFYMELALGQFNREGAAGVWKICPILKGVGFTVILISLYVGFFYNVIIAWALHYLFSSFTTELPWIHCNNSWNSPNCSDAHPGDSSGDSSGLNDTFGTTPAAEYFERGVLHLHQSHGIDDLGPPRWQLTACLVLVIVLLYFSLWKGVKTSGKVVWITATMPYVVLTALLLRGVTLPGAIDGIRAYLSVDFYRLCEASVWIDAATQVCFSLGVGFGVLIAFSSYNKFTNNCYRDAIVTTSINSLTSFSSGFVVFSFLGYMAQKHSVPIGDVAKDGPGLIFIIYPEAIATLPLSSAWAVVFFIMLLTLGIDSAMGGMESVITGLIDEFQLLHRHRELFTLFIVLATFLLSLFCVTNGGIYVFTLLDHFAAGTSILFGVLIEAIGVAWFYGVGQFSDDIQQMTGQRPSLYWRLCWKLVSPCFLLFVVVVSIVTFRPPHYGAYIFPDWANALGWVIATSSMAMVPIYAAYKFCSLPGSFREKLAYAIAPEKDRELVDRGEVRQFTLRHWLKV

The target in one assay is T1, human 5-HT transporter (Homo sapiens, UniProt P31645).
T1 construct: expressed in transfected cells; host or cells: HEK 293 cells
T1 sequence (P31645 whole entry): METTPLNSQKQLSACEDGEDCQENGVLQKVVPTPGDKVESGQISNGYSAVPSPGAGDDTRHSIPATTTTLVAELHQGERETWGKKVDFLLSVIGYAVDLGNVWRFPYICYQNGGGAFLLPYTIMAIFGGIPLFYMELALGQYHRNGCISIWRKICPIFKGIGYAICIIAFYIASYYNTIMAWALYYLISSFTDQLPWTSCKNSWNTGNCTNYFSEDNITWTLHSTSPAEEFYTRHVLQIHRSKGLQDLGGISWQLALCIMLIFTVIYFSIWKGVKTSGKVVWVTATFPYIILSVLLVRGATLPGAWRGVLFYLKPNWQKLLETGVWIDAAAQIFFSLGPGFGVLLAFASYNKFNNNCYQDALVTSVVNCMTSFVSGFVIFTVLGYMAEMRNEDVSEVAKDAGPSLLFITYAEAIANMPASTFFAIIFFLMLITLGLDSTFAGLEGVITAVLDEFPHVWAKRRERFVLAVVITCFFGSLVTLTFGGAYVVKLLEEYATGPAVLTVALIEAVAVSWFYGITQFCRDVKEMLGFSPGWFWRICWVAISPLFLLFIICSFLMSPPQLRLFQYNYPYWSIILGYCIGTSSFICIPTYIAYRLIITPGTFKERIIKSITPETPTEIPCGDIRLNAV
Description: Inhibition of [3H]5-HT uptake in cells expressing the recombinant human 5-HT transporter. It is filed as cell-based. To be noted: HEK293, 1 μM compound, HEK 293 cells expressing the 5-HT transporter, read-out: Uptake inh. % at 1 μM 5-HT. The method, then: (§1) The ability of the 1-heteroaryl-3-azabicyclo[3.1.0.]hexane of the invention for inhibiting transport of norepinephrine (NE) and/or dopamine (DA) and/or serotonin (5-HT) were evaluated using cell lines (such as the HEK 293 cell line) that stably express recombinant human NE, DA, and 5-HT transporters, respectively. The techniques for stably transfecting mammalian cell lines with neurotransmitter transporters and measuring the effects of drugs on amine uptake have been described in the literature (e.g., Gu, H., et al. J. Biol. Chem. 269:7124-7130, 1994; Eshleman A J, J Pharmacol Exp Ther 289:877-885, 1999) and well known to those skilled in the art.
(§2) A basic technique for measuring the ability of a compound to inhibit [^3H]NE, DA, and 5-HT uptake in cell lines recombinantly expressing human transporters has been described (Eshleman, et al., 1999). In brief, cell suspensions (HEK 293 cells expressing the 5-HT transporter; MDCK cells expressing the NE transporter, and CHO-K1 cells expressing the DA transporter, respectively) can be prepared for assay by removing the medium from cells grown on tissue culture dishes, then washing the plates with buffered medium. Cells can then be gently scraped from the plates and cell clusters separated by trituration with a pipette for 5-10 aspiration/ejection cycles. To these cell suspensions were added test drugs (final concentrations generally from 0.01-5 μM) and Tris/Hepes buffer, pH 7.1 (also containing 120 mM NaCl, 1.2 mM CaICl2, 1.2 mM MgSO4, 5 mM D-glucose, and 1 mM ascorbic acid). Following a preincubation of the isolated cells at 25° C., either [^3H]DA, [^3H]5-HT, or [^3H]NE was added and the incubation continued an additional 10 minutes. Radiolabelled neurotransmitter uptake was terminated by vacuum filtration and washing through Whatman glass fiber filters (GF/C), and the radioactivity retained on the filters was measured by liquid scintillation spectrometry. Specific uptake was defined as the difference in uptake observed in the absence and presence of a large molar excess of nomifensine, desipramine, or fluoxetine (for [^3H]DA, [^3H]NE or [^3H]5-HT, respectively].
(§3) The results of these assays are shown in Table 2, below, which indicates, for each of the exemplary compounds, the structure of the substituent, and levels of observed uptake inhibition percentage for each of the indicated neurotransmitters at a fixed concentration of compound, or the IC50 value, defined as that concentration of compound necessary to inhibit uptake by 50%. These are standard terms known to those skilled in the art.
In the case of `CN1CC2CC2(c2cc3ccccc3n2C)C1` (stereo not drawn), the inhibition at 1 µM came to 64%.
On the same count and under the same terms, under `c1cnc2ccc(C34CNCC3C4)cc2c1` (stereo not drawn) stands 63%; under `CC(C)N1CC2CC2(c2cc3ccccc3n2C)C1` (stereo not drawn), 83%; under `Clc1ccc2scc(C34CNCC3C4)c2c1` (stereo not drawn), 18%.
The same measure, in the same setting: next, `CN1CC2CC2(c2csc3ccc(Cl)cc23)C1` (stereo not drawn): 50%; `CN1C[C@H]2C[C@@]2(c2cc3ccccc3s2)C1`: 99%; `Fc1ccc2sc(C34CNCC3C4)cc2c1` (stereo not drawn): 98%.
With `c1ccc2sc(C34CNCC3C4)cc2c1` (stereo not drawn), the inhibition at 1 µM was 66%.
Regarding `CN1CC2CC2(c2ccc3ncccc3c2)C1` (stereo not drawn), the inhibition at 1 µM turned out to be 93%.
Still for that read-out and setting: under `c1ccc2c(C34CNCC3C4)coc2c1` (stereo not drawn) stands 57%; under `Fc1ccc2cc(C34CNCC3C4)sc2c1` (stereo not drawn), 100%.
`c1ccc2sc([C@@]34CNC[C@H]3C4)cc2c1`: the inhibition at 1 µM stood at 76%.
`CN1CC2CC2(c2ccc3c(ccn3C)c2)C1` (stereo not drawn): the inhibition at 1 µM came to 71%.
The same measure, in the same setting: under `CN1CC2CC2(c2cc3cc(F)ccc3s2)C1` (stereo not drawn) stands 94%; under `Cc1ccc(C23CNCC2C3)s1` (stereo not drawn), 35%; under `CN1CC2CC2(c2coc3ccccc23)C1` (stereo not drawn), 45%.
Same read-out and setting: under `CN1C[C@H]2C[C@]2(c2cc3ccccc3s2)C1` stands 89%.
On the same count and under the same terms, under `c1ccc2ncc(C34CNCC3C4)cc2c1` (stereo not drawn) stands 14%; under `CN1CC2CC2(c2cc3ccccc3s2)C1` (stereo not drawn), 92%; under `CCN1CC2CC2(c2cc3ccccc3n2C)C1` (stereo not drawn), 65%.
For `CN1CC2CC2(c2cc3ccc(F)cc3s2)C1` (stereo not drawn), the inhibition at 1 µM worked out at 99%.
On the same count and under the same terms, next, `CCN1CC2CC2(c2ccc3c(ccn3C)c2)C1` (stereo not drawn): 59%; `c1ccc2sc([C@]34CNC[C@H]3C4)cc2c1`: 96%.
Still for that read-out and setting: under `c1ccc2sc(C34CNCC3C4)nc2c1` (stereo not drawn) stands 7%.

The same assay, now with this note: HEK 293 cells expressing the 5-HT transporter.
Turning to `CN1C[C@H]2C[C@@]2(c2cc3ccccc3s2)C1`, the concentration for half-maximal inhibition (IC50) is 54 nM.
The same measure, in the same setting: next, `c1ccc2sc(C34CNCC3C4)cc2c1` (stereo not drawn): 88 nM.
As to `c1ccc2c(C34CNCC3C4)coc2c1` (stereo not drawn), the half-maximal inhibitory concentration (IC50) turned out to be 188 nM.
The same measure, in the same setting: under `c1ccc2sc([C@@]34CNC[C@H]3C4)cc2c1` stands 481 nM; under `CN1CC2CC2(c2ccc3c(ccn3C)c2)C1` (stereo not drawn), 154 nM; under `CN1CC2CC2(c2coc3ccccc23)C1` (stereo not drawn), 1450 nM.
Still for that read-out and setting: next, `CN1CC2CC2(c2cc3ccccc3o2)C1` (stereo not drawn): 340 nM.
On the same count and under the same terms, under `CN1C[C@H]2C[C@]2(c2cc3ccccc3s2)C1` stands 263 nM; under `CN1CC2CC2(c2cc3ccccc3s2)C1` (stereo not drawn), 34 nM; under `CCN1CC2CC2(c2ccc3c(ccn3C)c2)C1` (stereo not drawn), 308 nM.
Take `c1ccc2sc([C@]34CNC[C@H]3C4)cc2c1`: the IC50 was 193 nM.

Another assay deals with T2, human NE transporter (Homo sapiens, UniProt P23975).
T2 construct: expressed in transfected cells; host or cells: MDCK cells
T2 sequence (P23975 whole entry): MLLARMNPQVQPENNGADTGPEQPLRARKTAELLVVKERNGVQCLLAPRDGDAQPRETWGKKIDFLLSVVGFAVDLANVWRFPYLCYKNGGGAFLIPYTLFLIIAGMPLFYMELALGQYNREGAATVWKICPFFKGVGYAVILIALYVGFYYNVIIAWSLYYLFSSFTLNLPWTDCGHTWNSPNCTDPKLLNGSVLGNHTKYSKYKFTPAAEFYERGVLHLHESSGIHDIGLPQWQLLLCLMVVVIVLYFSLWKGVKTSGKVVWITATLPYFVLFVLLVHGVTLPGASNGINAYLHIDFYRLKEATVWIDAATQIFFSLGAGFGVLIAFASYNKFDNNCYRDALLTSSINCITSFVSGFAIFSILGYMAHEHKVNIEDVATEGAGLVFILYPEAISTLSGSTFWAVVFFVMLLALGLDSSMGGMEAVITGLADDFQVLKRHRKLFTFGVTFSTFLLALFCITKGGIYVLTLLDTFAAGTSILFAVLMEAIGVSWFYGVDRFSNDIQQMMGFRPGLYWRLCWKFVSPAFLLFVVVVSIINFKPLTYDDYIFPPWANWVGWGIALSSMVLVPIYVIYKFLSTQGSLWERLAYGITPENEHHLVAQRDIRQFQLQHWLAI
Kind of assay: Inhibition of [3H]NE uptake in cells expressing the recombinant human NE transporter. It is filed as cell-based. As to conditions: 1 μM compound, MDCK cells expressing the NE transporter, read-out: Uptake inh. % at 1 μM NE. The method, then:
as §1, §2, §3
`CN1CC2CC2(c2cc3ccccc3n2C)C1` (stereo not drawn): the inhibition at 1 µM came to 35%.
The same measure, in the same setting: next, `c1cnc2ccc(C34CNCC3C4)cc2c1` (stereo not drawn): 68%; `CC(C)N1CC2CC2(c2cc3ccccc3n2C)C1` (stereo not drawn): 13%.
Still for that read-out and setting: under `Clc1ccc2scc(C34CNCC3C4)c2c1` (stereo not drawn) stands 50%; under `CN1CC2CC2(c2csc3ccc(Cl)cc23)C1` (stereo not drawn), 39%.
On the same count and under the same terms, under `CN1C[C@H]2C[C@@]2(c2cc3ccccc3s2)C1` stands 89%.
On to `Fc1ccc2sc(C34CNCC3C4)cc2c1` (stereo not drawn), for which the inhibition at 1 µM amounted to 91%.
The same measure, in the same setting: under `c1ccc2sc(C34CNCC3C4)cc2c1` (stereo not drawn) stands 90%; under `CN1CC2CC2(c2ccc3ncccc3c2)C1` (stereo not drawn), 13%.
As for `c1ccc2c(C34CNCC3C4)coc2c1` (stereo not drawn), the inhibition at 1 µM turned out to be 77%.
Same read-out and setting: under `Fc1ccc2cc(C34CNCC3C4)sc2c1` (stereo not drawn) stands 98%.
With `c1ccc2sc([C@@]34CNC[C@H]3C4)cc2c1`, the inhibition at 1 µM was 84%.
Still for that read-out and setting: next, `CN1CC2CC2(c2ccc3c(ccn3C)c2)C1` (stereo not drawn): 53%; `CN1CC2CC2(c2cc3cc(F)ccc3s2)C1` (stereo not drawn): 70%.
For `Cc1ccc(C23CNCC2C3)s1` (stereo not drawn), the inhibition at 1 µM was 59%.
As for `CN1CC2CC2(c2coc3ccccc23)C1` (stereo not drawn), the inhibition at 1 µM is 82%.
The same measure, in the same setting: under `CN1C[C@H]2C[C@]2(c2cc3ccccc3s2)C1` stands 75%; under `c1ccc2ncc(C34CNCC3C4)cc2c1` (stereo not drawn), 64%; under `CN1CC2CC2(c2cc3ccccc3s2)C1` (stereo not drawn), 71%.
On the same count and under the same terms, under `CCN1CC2CC2(c2cc3ccccc3n2C)C1` (stereo not drawn) stands 29%.
Same read-out and setting: under `CN1CC2CC2(c2cc3ccc(F)cc3s2)C1` (stereo not drawn) stands 88%; under `CCN1CC2CC2(c2ccc3c(ccn3C)c2)C1` (stereo not drawn), 39%; under `c1ccc2sc([C@]34CNC[C@H]3C4)cc2c1`, 97%.
Consider `c1ccc2sc(C34CNCC3C4)nc2c1` (stereo not drawn), for which the inhibition at 1 µM came to 72%.

Still in this assay, the particulars now being: MDCK cells expressing the NE transporter.
For `CN1C[C@H]2C[C@@]2(c2cc3ccccc3s2)C1`, the IC50 turned out to be 71 nM.
`c1ccc2sc(C34CNCC3C4)cc2c1` (stereo not drawn): the IC50 was found to be 20 nM.
On the same count and under the same terms, next, `c1ccc2c(C34CNCC3C4)coc2c1` (stereo not drawn): 82 nM; `c1ccc2sc([C@@]34CNC[C@H]3C4)cc2c1`: 99 nM.
Same read-out and setting: next, `CN1CC2CC2(c2ccc3c(ccn3C)c2)C1` (stereo not drawn): 186 nM.
Still for that read-out and setting: next, `CN1CC2CC2(c2coc3ccccc23)C1` (stereo not drawn): 138 nM.
For `CN1CC2CC2(c2cc3ccccc3o2)C1` (stereo not drawn), the half-maximal inhibitory concentration (IC50) was determined as 400 nM.
On the same count and under the same terms, next, `CN1C[C@H]2C[C@]2(c2cc3ccccc3s2)C1`: 107 nM.
On the same count and under the same terms, under `CN1CC2CC2(c2cc3ccccc3s2)C1` (stereo not drawn) stands 60 nM.
On the same count and under the same terms, next, `CCN1CC2CC2(c2ccc3c(ccn3C)c2)C1` (stereo not drawn): 138 nM; `c1ccc2sc([C@]34CNC[C@H]3C4)cc2c1`: 14 nM.

The next assay has as its target T3, human DA transporter (Homo sapiens, UniProt Q01959).
T3 construct: expressed in transfected cells; host or cells: CHO-K1 cells
Kind of assay: Inhibition of [3H]DA uptake in cells expressing the recombinant human DA transporter. As to conditions: 1 μM compound, CHO-K1 cells expressing the DA transporter, read-out: Uptake inh. % at 1 μM DA. It counts as cell-based. The method, then: as §1, §2, §3
With `CN1CC2CC2(c2cc3ccccc3n2C)C1` (stereo not drawn), the inhibition at 1 µM was found to be 19%.
Take `c1cnc2ccc(C34CNCC3C4)cc2c1` (stereo not drawn): the inhibition at 1 µM is 17%.
On the same count and under the same terms, next, `CC(C)N1CC2CC2(c2cc3ccccc3n2C)C1` (stereo not drawn): 7%; `Clc1ccc2scc(C34CNCC3C4)c2c1` (stereo not drawn): 13%; `CN1CC2CC2(c2csc3ccc(Cl)cc23)C1` (stereo not drawn): 1%.
The same measure, in the same setting: under `CN1C[C@H]2C[C@@]2(c2cc3ccccc3s2)C1` stands 82%.
As to `Fc1ccc2sc(C34CNCC3C4)cc2c1` (stereo not drawn), the inhibition at 1 µM was found to be 78%.
`c1ccc2sc(C34CNCC3C4)cc2c1` (stereo not drawn): the inhibition at 1 µM turned out to be 91%.
Same read-out and setting: next, `CN1CC2CC2(c2ccc3ncccc3c2)C1` (stereo not drawn): 12%; `c1ccc2c(C34CNCC3C4)coc2c1` (stereo not drawn): 63%; `Fc1ccc2cc(C34CNCC3C4)sc2c1` (stereo not drawn): 99%.
On the same count and under the same terms, next, `c1ccc2sc([C@@]34CNC[C@H]3C4)cc2c1`: 90%; `CN1CC2CC2(c2ccc3c(ccn3C)c2)C1` (stereo not drawn): 45%.
Turning to `CN1CC2CC2(c2cc3cc(F)ccc3s2)C1` (stereo not drawn), the inhibition at 1 µM amounted to 63%.
Same read-out and setting: under `Cc1ccc(C23CNCC2C3)s1` (stereo not drawn) stands 20%; under `CN1CC2CC2(c2coc3ccccc23)C1` (stereo not drawn), 67%.
Take `CN1C[C@H]2C[C@]2(c2cc3ccccc3s2)C1`: the inhibition at 1 µM was 83%.
Still for that read-out and setting: under `c1ccc2ncc(C34CNCC3C4)cc2c1` (stereo not drawn) stands 10%; under `CN1CC2CC2(c2cc3ccccc3s2)C1` (stereo not drawn), 88%; under `CCN1CC2CC2(c2cc3ccccc3n2C)C1` (stereo not drawn), 32%.
Still for that read-out and setting: under `CN1CC2CC2(c2cc3ccc(F)cc3s2)C1` (stereo not drawn) stands 94%.
On the same count and under the same terms, under `CCN1CC2CC2(c2ccc3c(ccn3C)c2)C1` (stereo not drawn) stands 65%; under `c1ccc2sc([C@]34CNC[C@H]3C4)cc2c1`, 90%.
Turning to `c1ccc2sc(C34CNCC3C4)nc2c1` (stereo not drawn), the inhibition at 1 µM was determined as 5%.

Staying with this assay, now noted: CHO-K1 cells expressing the DA transporter.
For `CN1C[C@H]2C[C@@]2(c2cc3ccccc3s2)C1`, the IC50 was 224 nM.
The same measure, in the same setting: under `c1ccc2sc(C34CNCC3C4)cc2c1` (stereo not drawn) stands 82 nM; under `c1ccc2c(C34CNCC3C4)coc2c1` (stereo not drawn), 770 nM; under `c1ccc2sc([C@@]34CNC[C@H]3C4)cc2c1`, 149 nM.
Consider `CN1CC2CC2(c2ccc3c(ccn3C)c2)C1` (stereo not drawn), for which the 50% inhibitory concentration (IC50) amounted to 811 nM.
Still for that read-out and setting: under `CN1CC2CC2(c2coc3ccccc23)C1` (stereo not drawn) stands 475 nM; under `CN1CC2CC2(c2cc3ccccc3o2)C1` (stereo not drawn), 630 nM.
Turning to `CN1C[C@H]2C[C@]2(c2cc3ccccc3s2)C1`, the half-inhibitory concentration (IC50) turned out to be 195 nM.
Still for that read-out and setting: next, `CN1CC2CC2(c2cc3ccccc3s2)C1` (stereo not drawn): 98 nM; `CCN1CC2CC2(c2ccc3c(ccn3C)c2)C1` (stereo not drawn): 215 nM.
`c1ccc2sc([C@]34CNC[C@H]3C4)cc2c1`: the 50% inhibitory concentration (IC50) came to 52 nM.
